Test system: ARPE-19 cells
Experiment: Intracellular uptake of FITC labeled TAT and PHHP 1 peptides in ARPE-19 cells (fluorometry)
Assay type: cell-based, human
Conditions: 10 and 5 μM
Description: FIG. 9 are graphs of quantitation of in vitro cell uptake study of FITC labeled PHIP (P 1) and TAT peptides in ARPE-19 cells. Cells were grown to a 10,000 well density in 96 well fluorescent imaging plates with a transparent bottom. The ARPE-19 cells required an additional 48 hrs, to reach this cell density. Cells were incubated with 200 μl of 10 and 5 μM/ml FITC labeled PHHP (P 1) and TAT peptides and uptake was continued for 1 hour at 37° C. Following uptake; cells were washed three times with acidic PBS (pH 5.0) and normal PBS (pH 7.4) at 37° C. Cells were lysed using 0.1 M NaOH and quantified using a fluorometry method. Panel A illustrates uptake of peptides by ARPE-19 cells and absolute amount, and panel B illustrates the percentage uptake of peptides at different concentrations.
The cell uptake study of FITC labeled PHHP peptides in an ARPE-19 cell line was studied using fluorometry. ARPE —19 cells were grown in a DMEM/F12 medium. A cell density of 10,000 cells was plated into a 96 well plate for each cell lines, 48 hours before the start of the uptake study. […] All the samples were brought to room temperature and fluorescence spectra were recorded at an excitation wavelength of 493 nm and emission wavelength of 520 nm. The percentage uptake and absolute uptake were determined for each peptide at different concentrations and plotted as a bar graph for comparative analyses in FIG. 3.
Intracellular uptake of TAT and PHHP 1 peptides in ARPE-19 cells. […] All the samples were then brought to room temperature and fluorescence intensities were recorded at an excitation wavelength of 493 nm and emission wavelength of 520 nm.
Percentage uptake and statistical analyses at different concentrations were compared. […] The percentage uptake of the PHHP 1 peptide was determined to be ˜15-17, whereas ˜3-4% for TAT peptide. […] Furthermore, these proteins in their PHHP 1 tagged and un-tagged forms were evaluated for intracellular uptake properties in ARPE-19, A549, and hCET cells lines and for transcellular migration behavior across bovine and rabbit eyes cornea following topical dosing (FIG. 9).

In the case of “PHHP 1: positive, helical, hydrophobic peptide variant, sequence WWFWIWFWWGPGRRKRRKRRR [SEQ ID 1] (Sequence is synthesized)”, the “fold improvement in the uptake relative to the TAT peptide” value (1 hour uptake at 37° C.) is reported as 4-7 fold, the “uptake behavior (percentage uptake versus concentration)” value (FITC labeled peptide, 1 hour) is reported as “concentration dependence” and the percentage uptake (FITC labeled peptide, 1 hour uptake at 37° C.) is reported as 15-17%.

Reference: patent US20240092837A1, “Novel Peptide Carrier Compositions” (The Regents of the University of Colorado, A Body Corporate, priority 2021, published 2024)
